According to patent publication US20100234313A1, “STABILIZED MICRONISED PARTICLES” (priority 2007, published 2010):

Legend:
[1] = Sedimentation behaviour of suspensions (volume fraction below the sedimentation front); assay type: physicochemical
Procedure: In this experiment the stability of micronised and non-micronised natamycin suspensions was analyzed by observing the sedimentation behavior of the suspensions. A micronised natamycin suspension was prepared essentially as described in Example 2 with the proviso that the natamycin was suspended in demineralized water and the pH was not set. Next, a suspension with a final natamycin concentration of 1% (w/w) was prepared in an aqueous solution containing 0.01 M NaCl. The pH of samples of the suspension was set with 0.01 M NaOH and 0.01 M HCl. The samples of the suspension were stored and the pH was adjusted after 10 and 24 hours, if necessary. After 24 hours the pH of the samples of the suspension remained constant. Ten ml of each separate sample was placed in a plastic pipette (Ten ml sterile and disposable plastic pipette; inner diameter 7 mm; Bibby Sterilin Ltd. Stone, Staffordshire, United Kingdom) which was closed at both ends and stored vertically at 4° C. The sedimentation behavior of the samples was followed in time by measuring the volume above and below the sedimentation front within each pipette. In Table 7 the results are shown. The percentages indicate the volume fraction below the sedimentation front. […] This implies that the particles form sediment. The rate at which this occurs varies with pH. […]

[2] = Particle size distribution and mean particle size (d4,3) by laser diffraction (LS230); assay type: physicochemical; conditions: for mean particle size (d4,3): non-ground product dispersed in water
Procedure: Measurements were carried out for the following organic compounds: natamycin (DSM Gist, Delft, the Netherlands), nystatin (DSM, Delft, the Netherlands), cocoa (Blooker Cocoa, Amsterdam, the Netherlands) and coffee (Douwe Egberts Coffee, Utrecht, the Netherlands). For natamycin two products each containing differently shaped natamycin particles were included in the example; a natamycin product comprising disc-shaped particles and a natamycin product comprising needle-shaped particles. Before use the coffee was filtered through a 150 μm sieve. Samples of the above organic compounds were dispersed in demineralised water until the light obscuration value, which was measured by Laser Diffraction technology using a Laser Diffraction Particle Size Analyzer LS230 from BeckmanCoulter, Fullerton, Calif., USA, was between 45% and 55%. […] Then, the particle size distribution was analysed with the device for 90 seconds. The device made use of a red laser and a tungsten lamp with wavelengths of 450, 600 and 900 nm to measure the particle size. The device required the refractive index of the liquid phase and the particles and the imaginary refractive index of the particles for determining the particle size distribution from the raw data. These values were manually entered into the measurement device (refractive index liquid: 1.33; refractive index natamycin: 1.6; nystatin: 1.6; cocoa: 2.0; coffee: 2.0; imaginary refractive index natamycin: 0.01; nystatin: 0.01; cocoa: 1.0; coffee: 1.0). From the particle size distribution the mean particle size was determined. The mean particle size provided by the measurement device was a volume based particle size, d4,3. The distribution per particle size range is given as a percentage of the total.
A buffer solution of pH 8 was made by mixing 13.75 ml citric acid solution of 0.1 mol/l with 486.25 ml sodium hydroxide solution of 0.2 mol/l. 25 g of disc-shaped natamycin (d4,3: 14.6 μm; DSM Gist, Delft, the Netherlands) was added to the buffer solution and the powder was dispersed by means of stirring. The grinding chamber (300 ml) of the ball mill (Dynomill KDL Special from Bachofen AG, Basel, Switzerland) was filled up to 75% (v/v) with 0.3 mm zirconium oxide beads stabilized with yttrium (Tosoh Corporation, Tokyo, Japan). The ball mill was operated at 2000 rotations per minute. The natamycin suspension was pumped through the ball mill at a flow rate of 6.1 g/s. The suspension that exited the ball mill was returned to the vessel containing the rest of the suspension. The suspension passed through the chamber of the ball mill multiple times during the grinding experiment. The residence time of the suspension in the grinding chamber and the vessel was 26.7 seconds and 59.4 seconds, respectively. Samples of the suspension exiting the mill were taken after 2, 5, 10, 20, 30, 45, 60, 75 and 90 minutes. The particle size in the suspension samples was measured for each sample by means of laser diffraction using the Laser Diffraction Particle Size Analyzer called LS230 from BeckmanCoulter (Fullerton, Calif., USA).
Disc-shaped natamycin powder was dispersed in water at a concentration of 3000 ppm. The mean particle size of the natamycin suspension was approximately 15 μm. The suspension was homogenized with a homogenizer (Panda 2K, ns100L, GEA NIRO SOAVI, Cell disrupter (R-type)) and a suspension comprising micronised natamycin particles was obtained. In Table 5 the mean particle size (d4,3) of the particles of the obtained suspension is shown as a function of homogenization pressure for a different number of homogenization cycles. […]
The experiment was essentially performed as for natamycin (see Example 2). […]

[3] = Dissolution test, suspension diluted 70 times with water at room temperature; assay type: physicochemical; conditions: stirred
Procedure: A micronised natamycin suspension prepared essentially as described in Example 7 (with size smaller than 0.2 μm) was diluted 70 times with water at room temperature. The suspension was stirred. Samples were taken out after 5 seconds and then every 10 seconds. The particles were removed from the suspension by filtration with a 0.02 μm syringe-filter (Whatman International Ltd, England). The natamycin concentration of the remaining solution was measured with a spectrophotometer (Uvikon 933, Kontron Instruments). […] The solution reached saturation within 5 seconds (approximately 43 ppm natamycin in solution and solid particles remaining). The same test was repeated with non-grinded disc-shaped natamycin particles with a mean particle size of around 15 μm. In this case the saturation concentration was reached after approximately 2 hours.

[4] = tested on: Penicillium discolor PED1, CR1A and Penicillium discolor PED74, L1; experiment: Challenge test on coated Gouda cheese; assay type: cell-based
Procedure: To test the efficacy of micronised natamycin in a cheese application, an experiment was performed wherein the surface of fresh brined Gouda cheeses were challenged with Penicillium discolor strains and treated with formulations comprising natamycin with different particle sizes. The amount of mould spores that was able to germinate on the treated cheese surfaces are an indication of the anti-fungal activity of the natamycin analyzed. The cheeses (10 per natamycin particle type) were considered to be no longer protected by natamycin, when at least 50% of the cheeses analyzed had more than two growing colonies.
Cheeses were coated with a coating containing base polymer Craymul 4386 (Cray Valley, Brummen) and containing natamycin particles. Cheeses were then contaminated at day zero with Penicillium discolor PED1, CR1A and Penicillium discolor PED74, L1 at a concentration of 1.1×10^3/cm^2. The cheeses were visually checked for fungal growth on a daily basis for three weeks. The experiment was carried out with three different natamycin particles: disc-shaped natamycin particles having a mean particle diameter of 15 μm; grinded disc-shaped natamycin particles for which grinding was stopped when the mean particle diameter was 1.23 μm; and micronised natamycin particles having a mean particle diameter of 0.18 μm. […] As a control, 10 cheeses comprising no natamycin in the coating were analyzed. […]

Particle size distribution ([2]; particle size 0-0.2 μm) | Particle size distribution ([2]; particle size 0.2-0.8 μm) | Particle size distribution ([2]; particle size 0.8-2.0 μm) | Particle size distribution ([2]; particle size 2.0-5.0 μm) | Particle size distribution ([2]; particle size 5.0-10.0 μm) | Particle size distribution ([2]; particle size 10.0-50.0 μm) | Particle size distribution ([2]; particle size 50.0-200.0 μm) | mean particle size (d4,3) ([2]; listed as needle-shaped natamycin product) | sedimentation behaviour ([1]; all pH values (pH 3 to 10), within 24 hours) | time to reach saturation concentration [3] | mean particle size (d4,3) ([2]; listed as Disc-shaped natamycin powder) | mean particle size (d4,3) ([2]; listed as disc-shaped natamycin product) | Compound | volume percentage below the sedimentation front ([1]; pH 4 to 6, after one day) | mean particle size (d4,3) [2] | Protection of cheese against fungal growth ([4]; 150 ppm natamycin in the coating) | Protection of cheese against fungal growth ([4]; 250 ppm natamycin in the coating)
10.2 % w/w | 7.2 % w/w | 10.5 % w/w | 24.9 % w/w | 31.7 % w/w | 15.6 % w/w | 0.0 % w/w | 6.4 μm |  |  |  |  | C[C@@H]1C/C=C/C=C/C=C/C=C/[C@H](O[C@@H]2O[C@H](C)[C@@H](O)[C@H](N)[C@@H]2O)C[C@@H]2O[C@](O)(C[C@@H](O)C[C@H]3O[C@@H]3/C=C/C(=O)O1)C[C@H](O)[C@H]2C(=O)O [Natamycin needle, natamycin] |  |  |  | 
0.0 % w/w | 0.0 % w/w | 0.8 % w/w | 18.4 % w/w | 32.6 % w/w | 47.8 % w/w | 0.4 % w/w |  | completely sediment | approximately 2 hours | approximately 15 μm | 14.6 μm | C[C@@H]1C/C=C/C=C/C=C/C=C/[C@H](O[C@@H]2O[C@H](C)[C@@H](O)[C@H](N)[C@@H]2O)C[C@@H]2O[C@](O)(C[C@@H](O)C[C@H]3O[C@@H]3/C=C/C(=O)O1)C[C@H](O)[C@H]2C(=O)O [Natamycin disc, natamycin] |  |  | 16 days | 18 days

Compound | Particle size distribution ([2]; particle size 0-0.2 μm) | Particle size distribution ([2]; particle size 0.2-0.8 μm) | Particle size distribution ([2]; particle size 0.8-2.0 μm) | Particle size distribution ([2]; particle size 2.0-5.0 μm) | Particle size distribution ([2]; particle size 5.0-10.0 μm) | Particle size distribution ([2]; particle size 10.0-50.0 μm) | Particle size distribution ([2]; particle size 50.0-200.0 μm) | mean particle size (d4,3) ([2]; listed as needle-shaped natamycin product) | sedimentation behaviour ([1]; all pH values (pH 3 to 10), within 24 hours) | time to reach saturation concentration [3] | mean particle size (d4,3) ([2]; listed as Disc-shaped natamycin powder) | mean particle size (d4,3) ([2]; listed as disc-shaped natamycin product) | volume percentage below the sedimentation front ([1]; pH 4 to 6, after one day) | mean particle size (d4,3) [2] | Protection of cheese against fungal growth ([4]; 150 ppm natamycin in the coating) | Protection of cheese against fungal growth ([4]; 250 ppm natamycin in the coating)
C[C@@H]1[C@H](O)[C@@H](C)/C=C/C=C/CC/C=C/C=C/C=C/C=C/C(O[C@H]2O[C@H](C)[C@@H](O)[C@H](N)[C@@H]2O)CC2O[C@](O)(CC(O)C(O)CCC(O)CC(O)CC(O)CC(=O)O[C@H]1C)CC(O)C2C(=O)O (stereo partly drawn) [Nystatin, nystatin] | 7.4 % w/w | 4.4 % w/w | 27.2 % w/w | 46.7 % w/w | 12.2 % w/w | 2.1 % w/w | 0.0 % w/w |  |  |  |  |  | around 25% | 3.4 μm |  | 
